For one assay, the system named is HCT-15. The assay can be described thus: Antitumor activity against human HCT15 cells xenografted in mouse at 10 mg/kg, po administered once daily for 12 days relative to control. Type of assay: functional. On the technique in general: Xenograft models place foreign cells or tissue in a host animal.
A short description of assay [1]: Antitumor activity against human AZ-521 cells xenografted in mouse at 5 mg/kg, po administered once daily for 12 days relative to control. Type of assay: functional.
For a further assay, the target named is Histone deacetylase 3 (Homo sapiens, UniProt O15379). Nature of the assay: Inhibition of HDAC3.
Assay [2] has as its target T1, Protein deacetylase HDAC6 (Homo sapiens, UniProt Q9UBN7).
T1 sequence (Q9UBN7 whole entry): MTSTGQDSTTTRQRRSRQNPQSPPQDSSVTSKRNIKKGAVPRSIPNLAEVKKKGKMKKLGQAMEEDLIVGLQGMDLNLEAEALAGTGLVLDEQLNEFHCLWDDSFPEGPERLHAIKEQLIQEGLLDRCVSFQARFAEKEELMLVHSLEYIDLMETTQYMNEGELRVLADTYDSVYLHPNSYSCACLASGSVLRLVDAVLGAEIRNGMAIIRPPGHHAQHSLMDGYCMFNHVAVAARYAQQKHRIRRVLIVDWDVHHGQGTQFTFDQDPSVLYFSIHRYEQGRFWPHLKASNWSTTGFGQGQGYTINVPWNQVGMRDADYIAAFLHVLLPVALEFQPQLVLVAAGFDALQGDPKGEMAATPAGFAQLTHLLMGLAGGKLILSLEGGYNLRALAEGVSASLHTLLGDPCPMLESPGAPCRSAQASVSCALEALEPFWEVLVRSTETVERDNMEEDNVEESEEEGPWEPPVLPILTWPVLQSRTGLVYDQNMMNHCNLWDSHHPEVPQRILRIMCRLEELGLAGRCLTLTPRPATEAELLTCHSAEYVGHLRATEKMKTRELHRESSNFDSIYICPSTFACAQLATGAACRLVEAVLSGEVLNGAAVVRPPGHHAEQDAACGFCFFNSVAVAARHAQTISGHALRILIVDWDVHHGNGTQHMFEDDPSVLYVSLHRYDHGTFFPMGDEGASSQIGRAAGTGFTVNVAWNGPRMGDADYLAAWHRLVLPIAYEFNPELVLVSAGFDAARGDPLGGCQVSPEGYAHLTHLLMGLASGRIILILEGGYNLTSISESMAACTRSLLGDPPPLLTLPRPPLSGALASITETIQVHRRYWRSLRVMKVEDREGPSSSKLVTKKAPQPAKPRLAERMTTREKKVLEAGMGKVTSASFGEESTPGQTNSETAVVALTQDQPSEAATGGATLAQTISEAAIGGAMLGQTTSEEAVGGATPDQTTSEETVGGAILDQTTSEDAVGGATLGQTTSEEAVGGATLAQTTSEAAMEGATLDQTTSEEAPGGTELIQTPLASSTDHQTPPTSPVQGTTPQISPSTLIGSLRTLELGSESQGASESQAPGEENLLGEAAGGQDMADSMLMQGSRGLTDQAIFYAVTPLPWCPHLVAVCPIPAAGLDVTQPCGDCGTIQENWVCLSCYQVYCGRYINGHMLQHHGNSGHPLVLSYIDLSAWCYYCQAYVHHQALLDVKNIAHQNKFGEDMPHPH
The assay can be described thus: Inhibition of HDAC6.

Another assay has as its target Histone deacetylase 2 (Homo sapiens, UniProt Q92769).

Chain of Histone deacetylase 2 (Q92769 whole entry): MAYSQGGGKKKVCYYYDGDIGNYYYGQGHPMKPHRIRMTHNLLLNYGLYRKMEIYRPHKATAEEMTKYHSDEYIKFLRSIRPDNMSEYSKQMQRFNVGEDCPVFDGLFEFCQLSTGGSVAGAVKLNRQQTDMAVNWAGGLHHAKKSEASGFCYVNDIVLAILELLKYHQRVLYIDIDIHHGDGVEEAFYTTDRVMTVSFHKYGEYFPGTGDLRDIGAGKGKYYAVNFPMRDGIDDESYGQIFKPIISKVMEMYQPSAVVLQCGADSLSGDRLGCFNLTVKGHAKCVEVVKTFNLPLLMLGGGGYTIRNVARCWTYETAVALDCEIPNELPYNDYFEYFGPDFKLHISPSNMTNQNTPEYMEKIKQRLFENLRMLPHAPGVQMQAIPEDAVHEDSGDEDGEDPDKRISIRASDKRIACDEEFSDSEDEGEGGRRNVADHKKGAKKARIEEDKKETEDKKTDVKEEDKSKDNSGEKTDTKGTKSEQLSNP
Chain of Histone deacetylase 3 (O15379 whole entry): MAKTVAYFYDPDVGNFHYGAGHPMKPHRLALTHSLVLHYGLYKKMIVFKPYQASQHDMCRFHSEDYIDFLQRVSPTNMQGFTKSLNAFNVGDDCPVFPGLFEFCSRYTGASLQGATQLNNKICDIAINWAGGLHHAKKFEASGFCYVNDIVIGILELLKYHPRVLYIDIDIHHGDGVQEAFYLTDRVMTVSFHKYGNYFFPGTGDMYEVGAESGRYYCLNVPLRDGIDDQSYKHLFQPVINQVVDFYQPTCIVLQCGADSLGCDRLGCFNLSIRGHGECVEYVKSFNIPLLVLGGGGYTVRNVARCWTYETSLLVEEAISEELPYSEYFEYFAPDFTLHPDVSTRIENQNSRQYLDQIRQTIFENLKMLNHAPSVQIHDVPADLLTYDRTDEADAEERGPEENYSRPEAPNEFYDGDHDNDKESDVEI

On to `Nc1ccccc1NC(=O)c1ccc(CNc2nccc(-c3ccn[nH]3)n2)cc1`, for which the T/C (usually the ratio of treated to control) in the assay on HCT-15 was found to be 63%; in assay [1], 43%. Moreover, the IC50 (in general, the concentration that gives 50% inhibition) is 320 nM against Histone deacetylase 3, greater than 20000 nM in assay [2] and 140 nM against Histone deacetylase 2.
